Results published in US20050165080A1, “Method for the treatment of diseases requiring inhibition or a reduction in the activity of pH value-regulating bicarbonate transporter proteins” (Solvay Pharmaceuticals GmbH, priority 2002, published 2005).

Experiments:
[1] = system: Na+/bicarbonate (Na+/HCO3−) cotransporter (NBC) protein or/and Na+-dependent chloride-bicarbonate (Cl−/HCO3−) exchanger (NDAE and N(D)CBE) protein; assay: Intracellular pH recovery after acidification (NH4Cl wash-out) in cardiac fibroblasts; assay type: cell-based, Wistar rats; conditions: recovery from intracellular acidification
Description: The investigations were carried out on cardiac fibroblasts isolated from the left ventricle of the myocardium of 6-week-old Wistar rats. Myocardial tissue was placed in HBSS medium without Ca^2+ and Mg^2+ (GibcoBRL), cut into small pieces which were incubated with 1 mg/ml collagenase A (Roche) with continuous shaking for 10 minutes in HBSS medium. The first supernatant was discarded and the incubation operation was repeated three times, the supernatant being collected each time in a tube with 5 ml HBSS medium. After centrifuging at 160×g for 10 min, the pellet was re-suspended in a flask with DMEM (GibcoBRL), to which 10% foetal calf serum (FCS, from Sigma) was added. […] The flasks were incubated in an air-humidified incubator with 5% CO2 and at 37° C. […]
The intracellular pH value of an individual cell was measured using the fluorescent marker BCECF (2′,7′-bis-(2-carboxymethyl)-5-[and -6]-carboxyfluorescein from Molecular Probes), the fluorescent intensity of which is pH-dependent. […] In so doing, the intracellular fluorescence of the BCECF was measured using an inverted microscope, to which a “PTI 710 Photon Counting Detection” system (Photon Technology International) with two monochromators was connected. The data were analysed using a fluorescence spectrometer. The measurement results—fluorescence signals—were converted into pH values using a calibration curve. […]

[2] = system: Na+-independent chloride-bicarbonate (Cl−/HCO3−) exchanger (AE) protein; assay: Intracellular pH recovery after alkalization (NH4Cl pulse) in BCECF-laden adult cardiac fibroblasts; assay type: cell-based, Wistar rats; conditions: for percentage of the change in pH value still present, relative to the maximum alkaline pH value reached, after 5 min / percentage of the change in pH value still present, relative to the maximum alkaline pH value reached, after 8 min: 10^−6 mole/liter, 5 mmole/liter NH4Cl pulse, cardiac fibroblasts, mean and standard deviation from 3 to 5 experiments; for percentage of the change in pH value still present, relative to the maximum alkaline pH value reached, after 5 min / percentage of the change in pH value still present, relative to the maximum alkaline pH value reached, after 8 min / recovery after the intracellular alkalization, compared with guanabenz-pre-treated or non-pre-treated cells: 30 min preincubation; for percentage of the change in pH value still present, relative to the maximum alkaline pH value reached, after 5 min: 5 min after maximum alkaline pH; for percentage of the change in pH value still present, relative to the maximum alkaline pH value reached, after 8 min: 8 min after maximum alkaline pH; for recovery after the intracellular alkalization, compared with guanabenz-pre-treated or non-pre-treated cells: moxonidine 10^−6 to 10^−9 mole/liter, H2-DIDS 10^−3 mole/liter, NH4Cl pulse
Description: The investigations were carried out on cardiac fibroblasts isolated from the left ventricle of the myocardium of 6-week-old Wistar rats. Myocardial tissue was placed in HBSS medium without Ca^2+ and Mg^2+ (GibcoBRL), cut into small pieces which were incubated with 1 mg/ml collagenase A (Roche) with continuous shaking for 10 minutes in HBSS medium. The first supernatant was discarded and the incubation operation was repeated three times, the supernatant being collected each time in a tube with 5 ml HBSS medium. After centrifuging at 160×g for 10 min, the pellet was re-suspended in a flask with DMEM (GibcoBRL), to which 10% foetal calf serum (FCS, from Sigma) was added. […] The flasks were incubated in an air-humidified incubator with 5% CO2 and at 37° C. Cardiac fibroblasts, which grew in a typical monolayer, were cultivated by standard cell culture techniques and at subconfluence were transferred into new flasks in a 1:3 ratio [Brilla et al. (1994) Collagen metabolism in cultured adult rat cardiac fibroblasts: response to agiotensin II and aldosterone. J. Mol. Cell Cardiol. 26: 809-820].
The intracellular pH value of an individual cell was measured using the fluorescent marker BCECF (2′,7′-bis-(2-carboxymethyl)-5-[and -6]-carboxyfluorescein from Molecular Probes), the fluorescent intensity of which is pH-dependent. The cardiac fibroblasts were grown on glass microscope slides until at subconfluence, and were then laden with BCECF-acetoxymethyl ester. The fibroblasts thus pre-treated were washed with PBS and then preincubated with various test solutions and then rinsed. In so doing, the intracellular fluorescence of the BCECF was measured using an inverted microscope, to which a “PTI 710 Photon Counting Detection” system (Photon Technology International) with two monochromators was connected. The data were analysed using a fluorescence spectrometer. The measurement results—fluorescence signals—were converted into pH values using a calibration curve.
Composition of the bicarbonate solution: 118 mmole/liter NaCl, 4.7 mmole/liter KCl, 2.5 mmole/liter CaCl2×2H2O, 1.6 mmole/liter MgCl2×7H2O, 24.9 mmole/liter NaHCO3, 1.2 mmole/liter KH2PO4, 5.6 mmole/liter glucose and either 0.4% or 10% FCS, equilibrated with 20% O2 and 5% CO2 for at least 30 minutes to ensure a pH value of 7.4.
The individual test solutions were based on the above bicarbonate solution and contained the following concentration of the compounds below: • 10^−6 mole/liter guanabenz (Sigma) • 10^−6 mole/liter to 10^−9 mole/liter moxonidine • 10^−3 mole/liter H2-DIDS (Molecular Probes) Intracellular alkalization of the cells was achieved by rinsing with a 5 mmole/liter NH4Cl-containing bicarbonate solution (NH4Cl pulse). Subsequent washing-out of the NH4Cl by rinsing the cells with fresh bicarbonate solution results in intracellular acidification.
The effect of moxonidine, DIDS and guanabenz on the change in the intracellular pH value after alkalization of the cells is determined by an NH4Cl pulse. To this end, the BCECF-laden cardiac fibroblasts were preincubated for 30 minutes with a bicarbonate test solution containing one of the above compounds. Then the response of the intracellular pH value of the cells thus pre-treated to a 5 mmole/liter NH4Cl pulse was measured over time. Also the change in pH value which took place during the subsequent washing-out of the NH4Cl (intracellular acidification) was further measured over time. […] To quantify the inhibitory effects, the percentage of the change in pH value still present relative to the maximum alkaline or maximum acidic pH value achieved was calculated.

| Compound | inhibition of NBC or/and NDAE and N(D)CBE proteins (result in words) [1] | percentage of the change in pH value still present, relative to the maximum alkaline pH value reached, after 5 min [2] | percentage of the change in pH value still present, relative to the maximum alkaline pH value reached, after 8 min [2] | recovery after the intracellular alkalization, compared with guanabenz-pre-treated or non-pre-treated cells [2] | inhibitory effect on the recovery from the alkaline pH (dose-effect curve) ([2]; concentration of 10^−8 mole/liter) |
| --- | --- | --- | --- | --- | --- |
| COc1nc(C)nc(Cl)c1NC1=NCCN1 [Moxonidine, 4-chloro-5-[(4,5-dihydro-1H-imidazol-2-yl)-amino]-6-methoxy-2-methylpyrimidine] | selective inhibitor | 58.8 ± 12.0% | 41.9 ± 24.4% | considerably longer recovery | significantly inhibitory action |
| O=S(=O)(O)c1cc(N=C=S)ccc1C=Cc1ccc(N=C=S)cc1S(=O)(=O)O [DIDS, 4,4′-diisothiocyanostilbene-4,4′-disulfonate] |  |  |  | considerably longer recovery |  |
| N=C(N)N/N=C/c1c(Cl)cccc1Cl [Guanabenz] |  | 20.6 ± 5.2% | 9.9 ± 2.7% |  |  |
